This passage reports IC50 results from patent publication US20250120927A1, “CNDP2 MODULATORS AND METHODS FOR THEIR USE” (Metabolon Inc., priority 2023, published 2025).

As usually defined, the IC50 is the concentration that gives 50% inhibition. Low values mean higher potency, high ones lower potency.

The structures appear in SMILES notation. Structures can show the parent of a compound that is named as a salt.

The target of the assay is CNDP2 (Homo sapiens (Human), UniProt Q96KP4). In words: CNDP2 enzyme inhibition assay (Met-His hydrolysis, free histidine by o-phthaldialdehyde fluorescence), dose-response. Type of assay: biochemical. The settings on record: 50 nM purified CNDP2 (Sino Biological), 1 mM Met-His substrate, 30 minutes at 37° C.; TABLE 2. As to the method: To identify optimal conditions for identifying novel inhibitors of CNDP2, enzyme assays were performed with varied sources of purified enzyme, concentrations of enzyme, peptide substrates, concentrations of peptide substrates and metal cofactors. […] The reaction mixture was incubated for 30 minutes at 37° C. before it was quenched with an equal volume of 1% TCA. Free histidine was quantified after derivatization with a fluorophore (o-phthaldialdehyde from Sigma-Aldrich, excitation 340 nm, emission 460 nm). The reaction was conducted in an automation-friendly format to meet future screening throughput demands. A histidine titration standard curve was also included to enable conversion of fluorescence signal to molar concentration of histidine released by the hydrolysis reaction and to ensure the linearity of the fluorescence signal vs. free histidine.
Sequence of CNDP2 (Q96KP4 whole entry): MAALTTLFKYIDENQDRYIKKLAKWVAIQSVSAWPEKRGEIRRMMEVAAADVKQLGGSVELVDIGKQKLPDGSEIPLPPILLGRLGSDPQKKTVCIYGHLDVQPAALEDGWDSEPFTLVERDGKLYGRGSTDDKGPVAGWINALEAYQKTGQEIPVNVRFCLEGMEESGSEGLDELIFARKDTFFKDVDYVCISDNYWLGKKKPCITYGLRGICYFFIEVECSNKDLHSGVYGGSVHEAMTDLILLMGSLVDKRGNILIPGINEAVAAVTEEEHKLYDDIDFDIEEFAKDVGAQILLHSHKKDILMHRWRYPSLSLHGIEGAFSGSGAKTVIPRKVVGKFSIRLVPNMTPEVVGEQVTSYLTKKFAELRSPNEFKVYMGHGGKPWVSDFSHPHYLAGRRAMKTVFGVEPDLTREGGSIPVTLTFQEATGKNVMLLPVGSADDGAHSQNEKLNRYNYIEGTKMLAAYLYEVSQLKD
Compounds of Formula (I) disclosed herein were screened for potency in inhibiting CNDP2 enzyme activity in a dose-response experiment. Bestatin was included with each batch of test molecules as a benchmark for assay quality control.
The compound `N[C@H](Cc1ccccc1)[C@H](O)C(=O)NC(c1cccc(C(F)(F)F)c1)C(F)(F)C(=O)O` (stereo partly drawn) [Compound 64] registered an IC50 not below 1 µM.

Compound `N[C@H](Cc1ccccc1)[C@H](O)C(=O)NC(C(=O)O)c1cccc(OC(F)F)c1` (stereo partly drawn) [Compound 65] had an IC50 of less than 0.1 µM.

The compound `N[C@H](Cc1ccccc1)[C@H](O)C(=O)NC(C(=O)O)c1cc(C(F)(F)F)cc(C(F)(F)F)c1` (stereo partly drawn) [Compound 66] yielded an IC50 not below 1 µM.

`N[C@H](Cc1ccccc1)[C@H](O)C(=O)NC(C(=O)O)c1cc(C(F)(F)F)ccc1F` (stereo partly drawn) [Compound 67] came in with an IC50 not below 1 µM.

In turn, `N[C@H](Cc1ccccc1)[C@H](O)C(=O)NC(C(=O)O)c1cc(F)cc(C(F)(F)F)c1` (stereo partly drawn) [Compound 68] yielded a 50% inhibitory concentration (IC50) of less than 0.1 µM.

In turn, `N[C@H](Cc1ccccc1)[C@H](O)C(=O)NC(C(=O)O)c1ccc(F)c(C(F)(F)F)c1` (stereo partly drawn) [Compound 69] displayed an IC50 of less than 0.1 µM.

In the case of `N[C@H](Cc1ccccc1)[C@H](O)C(=O)NC(c1cccc(C(F)(F)F)c1)c1noc(=O)[nH]1` (stereo partly drawn) [Compound 71], the IC50 lay within 0.1 to 1 µM.

On to `N[C@H](Cc1ccccc1)[C@H](O)C(=O)NC(CN1CCC(F)(F)CC1)C(=O)O` (stereo partly drawn) [Compound 72], for which the IC50 is not below 1 µM.

In turn, `N[C@H](Cc1ccccc1)[C@H](O)C(=O)N[C@@H](CN1CCC(C(F)(F)F)CC1)C(=O)O` [Compound 73] displayed an IC50 not below 1 µM.

Compound `N[C@H](Cc1ccccc1)[C@H](O)C(=O)N[C@H](c1cccc(OC(F)(F)F)c1)c1n[nH]c(=O)o1` [Compound 74] had an IC50 not below 1 µM.

Take `N[C@H](Cc1ccccc1)[C@H](O)C(=O)N[C@@H](c1cccc(OC(F)(F)F)c1)c1n[nH]c(=O)o1` [Compound 75]: the IC50 was not below 1 µM.

In turn, `N[C@H](Cc1ccccc1)[C@H](O)C(=O)N[C@@H](C(=O)O)c1cc(C(F)(F)F)ccc1C(F)(F)F` [Compound 80] registered an IC50 not below 1 µM.

`N[C@H](Cc1ccccc1)[C@H](O)C(=O)N[C@H](C(=O)O)c1cc(C(F)(F)F)ccc1C(F)(F)F` [Compound 81] registered an IC50 not below 1 µM.

Compound `N[C@H](Cc1ccccc1)[C@H](O)C(=O)N[C@@H](CN1CCCC(F)(F)C1)C(=O)O` [Compound 82] had an IC50 not below 1 µM.

`N[C@H](Cc1ccccc1)[C@H](O)C(=O)N[C@@H](CN1CCC(F)(F)C1)C(=O)O` [Compound 83] returned an IC50 not below 1 µM.

`C[C@](NC(=O)[C@@H](O)[C@H](N)Cc1ccccc1)(C(=O)O)c1cccc(C(F)(F)F)c1` [Compound 84, (R)-2-((2S,3R)-3-amino-2-hydroxy-4-phenylbutanamido)-2-(3-(trifluoromethyl)phenyl)propanoic acid] returned an IC50 not below 1 µM.

Compound `C[C@@](NC(=O)[C@@H](O)[C@H](N)Cc1ccccc1)(C(=O)O)c1cccc(C(F)(F)F)c1` [Compound 85, (S)-2-((2S,3R)-3-amino-2-hydroxy-4-phenylbutanamido)-2-(3-(trifluoromethyl)phenyl)propanoic acid] came in with an IC50 not below 1 µM.

`N[C@H](Cc1ccccc1)[C@H](O)C(=O)N[C@@H](C(=O)O)c1cccc(C(F)(F)F)c1Cl` [Compound 86, (R)-2-((2S,3R)-3-amino-2-hydroxy-4-phenylbutanamido)-2-(2-chloro-3-(trifluoromethyl)phenyl)acetic acid] came in with an IC50 not below 1 µM.

The compound `N[C@H](Cc1ccccc1)[C@H](O)C(=O)N[C@H](C(=O)O)c1cccc(C(F)(F)F)c1Cl` [Compound 87, (S)-2-((2S,3R)-3-amino-2-hydroxy-4-phenylbutanamido)-2-(2-chloro-3-(trifluoromethyl)phenyl)acetic acid] registered an IC50 of 0.1 to 1 µM.

As to `C[C@@](NC(=O)[C@@H](O)[C@H](N)Cc1ccccc1)(C(=O)O)c1cccc(OC(F)(F)F)c1` [Compound 88, (S)-2-((2S,3R)-3-amino-2-hydroxy-4-phenylbutanamido)-2-(3-(trifluoromethoxy)phenyl)propanoic acid], the IC50 is not below 1 µM.

In turn, `C[C@](NC(=O)[C@@H](O)[C@H](N)Cc1ccccc1)(C(=O)O)c1cccc(OC(F)(F)F)c1` [Compound 89, (R)-2-((2S,3R)-3-amino-2-hydroxy-4-phenylbutanamido)-2-(3-(trifluoromethoxy)phenyl)propanoic acid] gave an IC50 not below 1 µM.

As to `N[C@H](Cc1ccccc1)[C@H](O)C(=O)N[C@@H](C(=O)O)c1cccc(C(F)(F)F)c1F` [Compound 90, (R)-2-((2S,3R)-3-amino-2-hydroxy-4-phenylbutanamido)-2-(2-fluoro-3-(trifluoromethyl)phenyl)acetic acid], the IC50 is less than 0.1 µM.

Consider `N[C@H](Cc1ccccc1)[C@H](O)C(=O)N[C@H](C(=O)O)c1cccc(C(F)(F)F)c1F` [Compound 91, (S)-2-((2S,3R)-3-amino-2-hydroxy-4-phenylbutanamido)-2-(2-fluoro-3-(trifluoromethyl)phenyl)acetic acid], for which the IC50 is 0.1 to 1 µM.

With `N[C@H](Cc1ccccc1)[C@H](O)C(=O)N[C@@H](C(=O)O)c1cc(F)cc(C(F)(F)F)c1` [Compound 92, (R)-2-((2S,3R)-3-amino-2-hydroxy-4-phenylbutanamido)-2-(5-fluoro-3-(trifluoromethyl)phenyl)acetic acid], the IC50 was less than 0.1 µM.

The compound `N[C@H](Cc1ccccc1)[C@H](O)C(=O)N[C@H](C(=O)O)c1cc(F)cc(C(F)(F)F)c1` [Compound 93, (S)-2-((2S,3R)-3-amino-2-hydroxy-4-phenylbutanamido)-2-(5-fluoro-3-(trifluoromethyl)phenyl)acetic acid] returned an IC50 not below 1 µM.

Regarding `N[C@H](Cc1ccccc1)[C@H](O)C(=O)N[C@@H](C(=O)O)c1ccc(F)c(C(F)(F)F)c1` [Compound 94, (R)-2-((2S,3R)-3-amino-2-hydroxy-4-phenylbutanamido)-2-(4-fluoro-3-(trifluoromethyl)phenyl)acetic acid], the IC50 was less than 0.1 µM.

`N[C@H](Cc1ccccc1)[C@H](O)C(=O)N[C@H](C(=O)O)c1ccc(F)c(C(F)(F)F)c1` [Compound 95, (S)-2-((2S,3R)-3-amino-2-hydroxy-4-phenylbutanamido)-2-(4-fluoro-3-(trifluoromethyl)phenyl)acetic acid] had an IC50 not below 1 µM.

`N[C@H](Cc1ccccc1)[C@H](O)C(=O)N[C@@H](C(=O)O)c1ccc(F)c(C(F)(F)F)c1F` [Compound 96, (R)-2-((2S,3R)-3-amino-2-hydroxy-4-phenylbutanamido)-2-(2,4-difluoro-3-(trifluoromethyl)phenyl)acetic acid] showed an IC50 of less than 0.1 µM.

In the case of `N[C@H](Cc1ccccc1)[C@H](O)C(=O)N[C@H](C(=O)O)c1ccc(F)c(C(F)(F)F)c1F` [Compound 97, (S)-2-((2S,3R)-3-amino-2-hydroxy-4-phenylbutanamido)-2-(2,4-difluoro-3-(trifluoromethyl)phenyl)acetic acid], the IC50 lay within 0.1 to 1 µM.

With `N[C@H](Cc1ccccc1)[C@H](O)C(=O)N[C@@H](Cc1cc(F)c(OC(F)(F)F)c(F)c1)C(=O)O` [Compound 98], the IC50 was 0.1 to 1 µM.

In turn, `N[C@H](Cc1ccccc1)[C@H](O)C(=O)N[C@@H](Cc1ccc(F)c(OC(F)(F)F)c1)C(=O)O` [Compound 99] returned an IC50 not below 1 µM.

Compound `N[C@H](Cc1ccccc1)[C@H](O)C(=O)N[C@@H](Cc1ccc(C(F)(F)F)c(Cl)c1)C(=O)O` [Compound 100] yielded an IC50 of 0.1 to 1 µM.

Take `N[C@H](Cc1ccccc1)[C@H](O)C(=O)N[C@@H](CC1CCC(F)(F)CC1)c1n[nH]c(=O)o1` [Compound 101]: the IC50 was not below 1 µM.

Take `N[C@H](Cc1ccccc1)[C@H](O)C(=O)N[C@@H](C(=O)O)c1cc(F)cc(OC(F)(F)F)c1` [Compound 102, (R)-2-((2S,3R)-3-amino-2-hydroxy-4-phenylbutanamido)-2-(3-fluoro-5-(trifluoromethoxy)phenyl)acetic acid]: the half-maximal inhibitory concentration (IC50) is not below 1 µM.

`N[C@H](Cc1ccccc1)[C@H](O)C(=O)N[C@H](C(=O)O)c1cc(F)cc(OC(F)(F)F)c1` [Compound 103, (S)-2-((2S,3R)-3-amino-2-hydroxy-4-phenylbutanamido)-2-(3-fluoro-5-(trifluoromethoxy)phenyl)acetic acid] came in with an IC50 of less than 0.1 µM.

Regarding `N[C@H](Cc1ccccc1)[C@H](O)C(=O)N[C@@H](C(=O)O)c1ccc(F)c(OC(F)(F)F)c1` [Compound 104, (R)-2-((2S,3R)-3-amino-2-hydroxy-4-phenylbutanamido)-2-(4-fluoro-3-(trifluoromethoxy)phenyl)acetic acid], the IC50 is not below 1 µM.

With `N[C@H](Cc1ccccc1)[C@H](O)C(=O)N[C@H](C(=O)O)c1ccc(F)c(OC(F)(F)F)c1` [Compound 105, (S)-2-((2S,3R)-3-amino-2-hydroxy-4-phenylbutanamido)-2-(4-fluoro-3-(trifluoromethoxy)phenyl)acetic acid], the IC50 is less than 0.1 µM.

For `N[C@H](Cc1ccccc1)[C@H](O)C(=O)N[C@@H](C(=O)O)c1ccc(Cl)c(OC(F)(F)F)c1` [Compound 106, (R)-2-((2S,3R)-3-amino-2-hydroxy-4-phenylbutanamido)-2-(4-chloro-3-(trifluoromethoxy)phenyl)acetic acid hydrochloride], the IC50 was not below 1 µM.

The compound `N[C@H](Cc1ccccc1)[C@H](O)C(=O)N[C@H](C(=O)O)c1ccc(Cl)c(OC(F)(F)F)c1` [Compound 107, (S)-2-((2S,3R)-3-amino-2-hydroxy-4-phenylbutanamido)-2-(4-chloro-3-(trifluoromethoxy)phenyl)acetic acid hydrochloride] showed an IC50 of less than 0.1 µM.
